Results reported in patent US9783510B2, “Small molecule mediated transcriptional induction of E-cadherin” (Vanderbilt University, priority 2014, dated 2017).

What follows are molecules tested on E-cadherin expression in SW620 cells (assay: E-cadherin expression, in-cell Western (ICW), SW620 cells). Settings: Homo sapiens, SW-620, 24 h, change in expression level of E-cadherin in response to 10 μM compound, 24 hours, SW620 cells.
Format: cell-based
Procedure: SW620 and H520 cells (5×10^4/100 μL) were seeded in a 96-well plate prior to treatment. Cells were treated with 10 μM concentration of synthesized compound in quadruplicate for 24 hours in RPMI 1640 supplemented medium and 100 μg/mL penicillin-streptomycin. The cells were then fixed with 100% methanol for 20 minutes at 4° C. The wells were then washed 2 times with PBS, permeabilized in 2% bovine serum albumin (BSA) and 0.2% TritonX-100 in PBS for 30 minutes at room temperature with gentle agitation, and blocked in LI-COR blocking buffer for 30 minutes at room temperature with gentle agitation. The cells were then incubated with the following primary antibodies: anti-E-Cadherin (1:500) and anti-α-Tubulin (1:1000) diluted in blocking buffer (1:1 dilution in PBS) for 2 hours at room temperature with gentle agitation. The cells were washed 4 times in PBS-T for 5 minutes each, and then incubated with the following secondary antibodies conjugated to a fluorescent entity: IRDye 800-conjugated goat anti-rabbit IgG (1:1000) and IRDye-700-conjugated goat anti-mouse IgG (1:2000) in blocking buffer (1:1 dilution in PBS) with gentle agitation for 1 h at room temperature. The cells were washed 4 times in PBS-T for 5 minutes each followed by a single wash with PBS. All liquid was removed from the wells and the plates were visualized and analyzed on the Odyssey IR imaging system (LI-COR Biosciences).
The assay was further optimized in the following manner. The cells were washed 2 times with PBS, fixed in 100% methanol at room temperature for 15 minutes, and again washed 2 times with PBS. The cells were then incubated with the following primary antibodies: anti-E-Cadherin (1:200) and anti-α-Tubulin (1:2000) diluted in ice cold 2% bovine serum albumin (BSA) and 0.2% TritonX-100 in PBS for 1 hour at room temperature with gentle agitation. The cells were washed 2 times in PBS and then incubated with the following secondary antibodies conjugated to a fluorescent entity: Licor 800-conjugated goat anti-rabbit IgG (1:2000) and IRDye-700-conjugated goat anti-mouse IgG (1:2000) in ice cold 2% BSA and 0.2% TritonX-100 in PBS with gentle agitation for 45 minutes at room temperature. The wells were washed 2 times in PBS, dried, and analyzed as previously mentioned.
N-Acetamidoalkyl-5-arylisoxazole-3-carboxamide analogs were synthesized as described above. Changes in expression level of E-cadherin in response to 10 μM compound in SW620 cells was determined in a cell-based functional assay as described above, and the data are shown in Table III. The compound number corresponds to the compound numbers used in Table II.
EC50 of inducement of E-cadherin expression in SW620 cells was determined in a cell-based functional assay as described above, and the data are shown in Table V. The compound number corresponds to the compound numbers used in Table IV.

| Compound | fold induction at 10 µM |
| --- | --- |
| O=C(NCCCNC(=O)c1cc(Br)cnc1O)c1cc(-c2cccs2)on1 [Compound 50, N-(3-(5-bromo-2-hydroxynicotinamido)propyl)-5-(thiophen-2-yl)isoxazole-3-carboxamide] | 1.4 |
| O=C(NCCNC(=O)c1cnccc1O)c1cc(-c2ccccc2)on1 [Compound 12, N-(2-(4-hydroxynicotinamido)ethyl)-5-phenylisoxazole-3-carboxamide] | 3.25 |
| O=C(NCCCNC(=O)c1nccs1)c1cc(-c2ccccc2)on1 [Compound 35, 5-phenyl-N-(3-(thiazole-2-carboxamido)propyl)isoxazole-3-carboxamide] | 2.61 |
| Cc1cncc(C(=O)NCCCNC(=O)c2cc(-c3ccccc3)on2)n1 [Compound 111, N-(3-(6-methylpyrazine-2-carboxamido)propyl)-5-phenylisoxazole-3-carboxamide] | 4.13 |
| Cn1cnc(C(=O)NCCCNC(=O)c2cc(-c3ccccc3)on2)c1 [Compound 116, N-(3-(1-methyl-1H-imidazole-4-carboxamido)propyl)-5-phenylisoxazole-3-carboxamide] | 2.6 |
| O=C(NCCCNC(=O)c1cc(-c2cccs2)on1)c1cncc(F)c1 [Compound 54, N-(3-(5-fluoronicotinamido)propyl)-5-(thiophen-2-yl)isoxazole-3-carboxamide] | 2.22 |
| O=C(NCCCNC(=O)c1cc(-c2ccccc2)on1)c1ccc(O)nc1 [Compound 67, N-(3-(6-hydroxynicotinamido)propyl)-5-phenylisoxazole-3-carboxamide] | 1.22 |
| O=C(NCCCNC(=O)c1cc(-c2ccccc2)on1)c1cccnc1 [Compound 56, N-(3-(nicotinamido)propyl)-5-phenylisoxazole-3-carboxamide] | 3.43 |
| CC(C)(C)c1ccc(C(=O)NCCCNC(=O)c2cc(-c3cccs3)on2)o1 [Compound 98, N-(3-(5-(tert-butyl)furan-2-carboxamido)propyl)-5-(thiophen-2-yl)isoxazole-3-carboxamide] | 3.65 |
| Nc1ccc(C(=O)NCCCNC(=O)c2cc(-c3ccccc3)on2)cc1O [Compound 16, N-(3-(4-amino-3-hydroxybenzamido)propyl)-5-phenylisoxazole-3-carboxamide] | 3.72 |
| O=C(NCCCNC(=O)c1cc(-c2cccs2)on1)c1ccnc(O)c1 [Compound 37, N-(3-(2-hydroxyisonicotinamido)propyl)-5-(thiophen-2-yl)isoxazole-3-carboxamide] | 1.83 |
| Cc1nc(C(=O)NCCCNC(=O)c2cc(-c3cccs3)on2)no1 [Compound 80, 5-methyl-N-(3-(5-(thiophen-2-yl)isoxazole-3-carboxamido)propyl)-1,2,4-oxadiazole-3-carboxamide] | 2.83 |
| Cc1scnc1C(=O)NCCNC(=O)c1cc(-c2ccccc2)on1 [Compound 11, N-(2-(5-methylthiazole-4-carboxamido)ethyl)-5-phenylisoxazole-3-carboxamide] | 2.08 |
| O=C(NCCCNC(=O)c1ccc2ccccc2n1)c1cc(-c2cccs2)on1 [Compound 72, N-(3-(quinoline-2-carboxamido)propyl)-5-(thiophen-2-yl)isoxazole-3-carboxamide] | 3.13 |
| CC(C)(C)c1ccc(C(=O)NCCCNC(=O)c2cc(-c3ccccc3)on2)o1 [Compound 112, N-(3-(5-(tert-butyl)furan-2-carboxamido)propyl)-5-phenylisoxazole-3-carboxamide] | 3.86 |
| O=C(NCCCNC(=O)c1cc(-c2cccs2)on1)c1cc(-c2ccccc2)ccn1 [Compound 106, N-(3-(4-phenylpicolinamido)propyl)-5-(thiophen-2-yl)isoxazole-3-carboxamide] | 3.69 |
| Cc1ccc(C(=O)NCCCNC(=O)c2cc(-c3cccs3)on2)c(O)n1 [Compound 46, N-(3-(2-hydroxy-6-methylnicotinamido)propyl)-5-(thiophen-2-yl)isoxazole-3-carboxamide] | 3.48 |
| Cc1nc(C(=O)NCCCNC(=O)c2cc(-c3ccccc3)on2)no1 [Compound 91, 5-methyl-N-(3-(5-phenylisoxazole-3-carboxamido)propyl)-1,2,4-oxadiazole-3-carboxamide] | 3.47 |
| O=C(NCCCNC(=O)c1cncnc1O)c1cc(-c2cccs2)on1 [Compound 42, N-(3-(4-hydroxypyrimidine-5-carboxamido)propyl)-5-(thiophen-2-yl)isoxazole-3-carboxamide] | 0.95 |
| N#Cc1ccnc(C(=O)NCCCNC(=O)c2cc(-c3ccccc3)on2)c1 [Compound 93, N-(3-(4-cyanopicolinamido)propyl)-5-phenylisoxazole-3-carboxamide] | 2.88 |
| O=C(NCCCNC(=O)c1cc(-c2cccs2)on1)c1cc(Cl)ccn1 [Compound 40, N-(3-(4-chloropicolinamido)propyl)-5-(thiophen-2-yl)isoxazole-3-carboxamide] | 1.95 |
| Cc1cc(C)c(C(=O)NCCCNC(=O)c2cc(-c3cccs3)on2)o1 [Compound 110, N-(3-(3,5-dimethylfuran-2-carboxamido)propyl)-5-(thiophen-2-yl)isoxazole-3-carboxamide] | 3.74 |
| Cc1cncc(C(=O)NCCCNC(=O)c2cc(-c3cccs3)on2)n1 [Compound 97, N-(3-(6-methylpyrazine-2-carboxamido)propyl)-5-(thiophen-2-yl)isoxazole-3-carboxamide] | 3.82 |
| O=C(NCCCNC(=O)c1cc(-c2cccs2)on1)c1cccnc1 [Compound 39, N-(3-(nicotinamido)propyl)-5-(thiophen-2-yl)isoxazole-3-carboxamide] | 4.56 |
| O=C(NCCCNC(=O)c1cnccc1O)c1cc(-c2ccccc2)on1 [Compound 30, N-(3-(4-hydroxynicotinamido)propyl)-5-phenylisoxazole-3-carboxamide] | 2.69 |
| N[C@@H](Cc1c[nH]c2ccccc12)C(=O)NCCNC(=O)c1cc(-c2ccccc2)on1 [Compound 6, (S)—N-(2-(2-amino-3-(1H-indol-3-yl)propanamido)ethyl)-5-phenylisoxazole-3-carboxamide] | 0.92 |
| O=C(NCCCNC(=O)c1cnn[nH]1)c1cc(-c2cccs2)on1 [Compound 104, N-(3-(1H-1,2,3-triazole-5-carboxamido)propyl)-5-(thiophen-2-yl)isoxazole-3-carboxamide] | 3.13 |
| O=C(CCCC[C@@H]1SC[C@@H]2NC(=O)N[C@@H]21)Nc1cccc(C(=O)NCCCNC(=O)c2cc(-c3ccccc3)on2)c1 [Compound 18, N-(3-(3-(5-((3aS,4S,6aR)-2-oxohexahydro-1H-thieno[3,4-d]imidazol-4-yl)pentanamido)benzamido)propyl)-5-phenylisoxazole-3-carboxamide] | 1.05 |
| O=C(NCCCNC(=O)c1cccc(Cl)n1)c1cc(-c2cccs2)on1 [Compound 81, N-(3-(6-chloropicolinamido)propyl)-5-(thiophen-2-yl)isoxazole-3-carboxamide] | 3.09 |
| COc1ccc(C(=O)NCCCNC(=O)c2cc(-c3ccccc3)on2)c(OC)n1 [Compound 60, N-(3-(2,6-dimethoxynicotinamido)propyl)-5-phenylisoxazole-3-carboxamide] | 2.32 |

Same assay, conditions: Homo sapiens, SW-620; inducement of E-cadherin expression in SW620 cells

| Compound | EC50 [µM] |
| --- | --- |
| Cc1cncc(C(=O)NCCCNC(=O)c2cc(-c3ccccc3)on2)n1 [Compound 111, N-(3-(6-methylpyrazine-2-carboxamido)propyl)-5-phenylisoxazole-3-carboxamide] | 7.2 |
| O=C(NCCCNC(=O)c1cc(-c2cccs2)on1)c1cccnc1 [Compound 39, N-(3-(nicotinamido)propyl)-5-(thiophen-2-yl)isoxazole-3-carboxamide] | 5.02 |
